Results taken from US20020016370A1 (priority 1998, published 2002).
Read-outs that look alike come from different tables or passages of the source.

How the values were obtained:
mice = details: cited from earlier work
human α7 receptors = biological target: T1, human α7 receptors (Homo sapiens, UniProt P36544); experiment: Two-electrode voltage clamp, receptors expressed in Xenopus oocytes; type: cell-based
T1 construct: expressed in transfected cells; host or cells: Xenopus laevis oocytes injected with cRNA

male Swiss-Webster mice [1] = experiment: Locomotor depression test; type: in vivo, mouse
[2] = biological target: hSERT (serotonin transporter) (Homo sapiens, UniProt P31645); experiment: [125]RTI-55 binding, HEK293 cell membranes; details: HEK-hSERT membranes
human α4β2 receptors = biological target: T2, human α4β2 receptors (Homo sapiens, UniProt P17787+P43681); experiment: Two-electrode voltage clamp, receptors expressed in Xenopus oocytes; type: cell-based
T2 construct: expressed in transfected cells; host or cells: Xenopus laevis oocytes injected with cRNA

[3] = biological target: hDAT (dopamine transporter) (Homo sapiens, UniProt Q01959); experiment: [125]RTI-55 binding, HEK293 cell membranes; details: HEK-hDAT membranes
human α3β2 receptors = biological target: T3, human α3β2 receptors (Homo sapiens, UniProt P17787+P32297); experiment: Two-electrode voltage clamp, receptors expressed in Xenopus oocytes; type: cell-based; details: β2-containing receptors
T3 construct: expressed in transfected cells; host or cells: Xenopus laevis oocytes injected with cRNA

male Swiss-Webster mice [4] = experiment: Cocaine interaction study (locomotor activity); type: in vivo, mouse; details: 10 mg/kg ip plus cocaine 20 mg/kg, at 30 minutes
human α3β4 receptors = biological target: T4, human α3β4 receptors (Homo sapiens, UniProt P30926+P32297); experiment: Two-electrode voltage clamp, receptors expressed in Xenopus oocytes; type: cell-based
T4 construct: expressed in transfected cells; host or cells: Xenopus laevis oocytes injected with cRNA

[5] = test system: vagotomized, pithed and artificially respired rats; experiment: Pithed rat: cardiovascular responses to sympathetic nerve stimulation; type: in vivo; details: for increases in heart rate (δ HR): 2.2 Hz, highest dose, versus saline; for stimulation-induced increases in MAP: stimulation at 0.8 and 2.2 Hz, i.v. bolus
Male Sprague-Dawley rats [6] = experiment: Mecamylamine blockade of nicotine-induced seizures; type: in vivo, rat
[7] = test system: vagotomized, pithed and artificially respired rats; experiment: Pithed rat: plasma catecholamine responses to sympathetic nerve stimulation; type: in vivo; details: for change of plasma DA levels on sympathetic stimulation: from baseline
[8] = biological target: T5, α1β1δε mouse muscle receptors (Mus musculus, UniProt P02716+P04756+P09690+P20782); experiment: Selectivity test on muscle receptors in oocytes; type: cell-based
Protocol: For electrophysiology, oocyte recordings were made with an oocyte amplifier (e.g., Warner Instruments, Hamden, Conn., No. OC-725C) and recording chamber. […] A Mariotte flask filled with Ringer's solution was used to maintain a constant hydrostatic pressure for drug delivery and washes. Drugs were diluted in perfusion solution and loaded into a 2 ml loop at the terminus of the perfusion line. A bypass of the drug-loading loop allowed bath solution to flow continuously while the drug loop was loaded. The drug application was synchronized with data acquisition by using a 2-way electronic valve. […] Voltage electrodes were filled with 3M KCl and have resistances of 1-3MΩ. Oocytes with resting membrane potentials more positive than -30 mV were not used. […] All drug applications were separated by at least a 5 min wash period, longer if there is persisting drug effect. At the start of recording, all oocytes received two initial control applications of ACh. The second application of control ACh minimized the effects of rundown that occasionally occur after an initial ACh response. The second application of ACh also was used to normalize for the level of channel expression in each oocyte. To determine residual inhibitory effects, application of ACh with inhibitor or inhibitor alone was followed by another application of ACh alone and compared to the pre-application control ACh response. […]

[9] = biological target: hNET (norepinephrine transporter) (Homo sapiens, UniProt P23975); experiment: [125]RTI-55 binding, HEK293 cell membranes; details: HEK-hNET membranes
[10] = test system: Sprague-Dawley derived rats; experiment: Prevention of sensitized locomotor stimulant response to nicotine; type: in vivo, rat; details: pretreatment 7 days before nicotine; test on day 9
rats = details: mecamylamine 0.1-1 mg/day, ip; cited from earlier work
nicotine receptors = experiment: Oocyte recovery time course and agonist tests, receptor subtype not specified; type: cell-based
Male Sprague-Dawley rats [11] = experiment: Effects of mecamylamine alone at high dose (seizures, spontaneous locomotor activity); type: in vivo, rat; details: 10 mg/kg s.c.
[12] = biological target: T6, NMDA receptor subunits NR1 and NR2b (Homo sapiens, UniProt Q05586+Q13224); experiment: Oocytes coexpressing NMDA receptor subunits; type: cell-based; details: 100 μM
T6 construct: expressed in transfected cells; host or cells: Xenopus oocytes
Source text: NR1 is ubiquitous in the brain and produces robust functional responses when coexpressed with the NR2b subunit and activated by glutamate and the coagonist glycine. NR2b in vivo is selectively present in the forebrain with high levels of expression in the cerebral cortex and hippocampus, as well as the septum, caudate putamen and olfactory bulb, making the combination of NR2b and NR1 relevant for both cognitive and motor functions in the CNS.

[13] = biological target: T5, α1β1δε mouse muscle receptors; details: stated as a finding in the discussion; cited from earlier work
TS patients = details: Tourette's syndrome; cited from earlier work

T5 sequence (P04756 21-457): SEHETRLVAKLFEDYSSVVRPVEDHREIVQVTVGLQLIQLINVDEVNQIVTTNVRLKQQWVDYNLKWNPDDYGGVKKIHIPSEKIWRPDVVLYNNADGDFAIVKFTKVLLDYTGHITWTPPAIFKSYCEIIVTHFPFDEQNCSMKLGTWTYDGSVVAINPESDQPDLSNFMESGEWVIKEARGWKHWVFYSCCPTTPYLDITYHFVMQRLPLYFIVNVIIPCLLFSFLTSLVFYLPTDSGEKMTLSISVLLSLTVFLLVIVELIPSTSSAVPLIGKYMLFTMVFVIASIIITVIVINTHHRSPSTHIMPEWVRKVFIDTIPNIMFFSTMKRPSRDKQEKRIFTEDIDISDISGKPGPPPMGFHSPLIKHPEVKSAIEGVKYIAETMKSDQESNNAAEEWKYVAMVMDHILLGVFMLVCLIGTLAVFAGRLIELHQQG
T5 sequence (P09690 24-501): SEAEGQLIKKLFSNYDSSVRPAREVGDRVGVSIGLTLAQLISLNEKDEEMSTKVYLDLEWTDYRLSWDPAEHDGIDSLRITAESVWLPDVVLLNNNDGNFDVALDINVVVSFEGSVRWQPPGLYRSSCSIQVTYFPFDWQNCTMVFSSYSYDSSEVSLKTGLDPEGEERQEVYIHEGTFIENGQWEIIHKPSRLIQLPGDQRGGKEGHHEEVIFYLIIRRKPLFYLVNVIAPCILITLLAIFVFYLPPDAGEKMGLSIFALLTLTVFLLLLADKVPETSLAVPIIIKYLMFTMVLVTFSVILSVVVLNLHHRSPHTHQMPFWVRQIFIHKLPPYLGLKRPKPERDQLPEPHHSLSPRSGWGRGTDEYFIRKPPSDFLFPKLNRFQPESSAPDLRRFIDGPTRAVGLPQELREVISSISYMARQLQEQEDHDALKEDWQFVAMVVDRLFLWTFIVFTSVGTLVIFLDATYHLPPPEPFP
T5 sequence (P02716 25-520): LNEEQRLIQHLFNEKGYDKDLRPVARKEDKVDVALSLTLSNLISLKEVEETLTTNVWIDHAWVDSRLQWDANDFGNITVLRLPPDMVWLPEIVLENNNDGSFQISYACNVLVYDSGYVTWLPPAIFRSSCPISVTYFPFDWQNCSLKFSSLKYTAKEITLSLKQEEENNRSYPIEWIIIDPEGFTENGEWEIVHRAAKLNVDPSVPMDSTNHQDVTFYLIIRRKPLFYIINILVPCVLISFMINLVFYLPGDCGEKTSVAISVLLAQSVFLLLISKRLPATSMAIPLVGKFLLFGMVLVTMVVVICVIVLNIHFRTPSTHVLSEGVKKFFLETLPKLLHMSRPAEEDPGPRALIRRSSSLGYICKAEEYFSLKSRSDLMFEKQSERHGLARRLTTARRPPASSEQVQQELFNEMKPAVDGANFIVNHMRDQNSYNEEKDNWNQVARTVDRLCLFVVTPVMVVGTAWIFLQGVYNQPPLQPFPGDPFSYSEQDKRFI
T5 sequence (P20782 21-493): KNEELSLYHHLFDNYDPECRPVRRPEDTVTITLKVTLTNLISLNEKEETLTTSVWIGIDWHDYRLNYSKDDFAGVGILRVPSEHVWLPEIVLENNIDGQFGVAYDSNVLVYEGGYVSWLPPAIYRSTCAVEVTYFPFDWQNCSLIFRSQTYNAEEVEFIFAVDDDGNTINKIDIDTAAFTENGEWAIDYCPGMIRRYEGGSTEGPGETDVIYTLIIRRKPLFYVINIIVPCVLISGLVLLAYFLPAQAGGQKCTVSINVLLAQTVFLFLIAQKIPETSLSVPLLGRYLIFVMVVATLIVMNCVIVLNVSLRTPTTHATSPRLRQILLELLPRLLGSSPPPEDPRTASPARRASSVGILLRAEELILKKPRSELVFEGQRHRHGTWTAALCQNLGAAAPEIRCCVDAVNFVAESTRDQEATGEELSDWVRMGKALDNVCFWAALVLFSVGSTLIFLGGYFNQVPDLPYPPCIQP
T6 sequence (Q13224 27-1484, other chains not shown): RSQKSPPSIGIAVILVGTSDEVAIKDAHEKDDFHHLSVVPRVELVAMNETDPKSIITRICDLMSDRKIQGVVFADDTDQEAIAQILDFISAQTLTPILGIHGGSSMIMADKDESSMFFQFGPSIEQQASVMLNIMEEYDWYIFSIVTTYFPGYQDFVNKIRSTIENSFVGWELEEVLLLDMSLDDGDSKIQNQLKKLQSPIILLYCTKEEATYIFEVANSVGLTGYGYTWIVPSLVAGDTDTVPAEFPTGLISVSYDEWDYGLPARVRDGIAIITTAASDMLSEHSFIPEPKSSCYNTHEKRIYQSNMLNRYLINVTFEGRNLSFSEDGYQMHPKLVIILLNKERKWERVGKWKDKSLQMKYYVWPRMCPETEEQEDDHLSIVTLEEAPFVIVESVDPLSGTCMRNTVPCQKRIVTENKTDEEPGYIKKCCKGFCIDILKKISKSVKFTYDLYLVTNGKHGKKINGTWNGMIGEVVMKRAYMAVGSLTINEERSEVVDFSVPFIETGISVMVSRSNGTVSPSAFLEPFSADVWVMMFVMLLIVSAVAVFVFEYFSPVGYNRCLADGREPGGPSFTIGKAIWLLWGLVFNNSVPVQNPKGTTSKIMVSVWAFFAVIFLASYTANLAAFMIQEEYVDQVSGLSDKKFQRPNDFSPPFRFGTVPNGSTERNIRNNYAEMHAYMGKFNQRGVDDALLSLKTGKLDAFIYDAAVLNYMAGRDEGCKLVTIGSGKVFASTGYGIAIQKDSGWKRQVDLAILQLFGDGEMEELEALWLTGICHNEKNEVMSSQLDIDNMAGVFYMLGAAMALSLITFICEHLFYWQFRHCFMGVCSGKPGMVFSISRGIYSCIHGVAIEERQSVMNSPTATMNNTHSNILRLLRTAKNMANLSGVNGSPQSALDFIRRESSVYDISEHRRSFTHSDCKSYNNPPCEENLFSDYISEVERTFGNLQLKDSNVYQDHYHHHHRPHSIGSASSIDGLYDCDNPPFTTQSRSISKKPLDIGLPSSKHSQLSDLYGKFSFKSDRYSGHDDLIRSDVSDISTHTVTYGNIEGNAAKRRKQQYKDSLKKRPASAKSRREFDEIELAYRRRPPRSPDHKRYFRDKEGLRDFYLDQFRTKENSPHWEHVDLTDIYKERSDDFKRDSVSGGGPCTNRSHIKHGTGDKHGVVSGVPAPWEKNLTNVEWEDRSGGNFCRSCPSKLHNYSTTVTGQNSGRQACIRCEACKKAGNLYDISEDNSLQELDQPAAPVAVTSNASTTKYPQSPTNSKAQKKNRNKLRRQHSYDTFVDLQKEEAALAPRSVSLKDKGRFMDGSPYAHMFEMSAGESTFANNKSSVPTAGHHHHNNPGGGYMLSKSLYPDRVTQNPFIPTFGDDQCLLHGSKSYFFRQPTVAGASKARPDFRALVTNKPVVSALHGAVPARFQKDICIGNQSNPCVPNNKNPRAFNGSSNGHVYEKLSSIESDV
T2 sequence (P43681 29-627 limits assumed): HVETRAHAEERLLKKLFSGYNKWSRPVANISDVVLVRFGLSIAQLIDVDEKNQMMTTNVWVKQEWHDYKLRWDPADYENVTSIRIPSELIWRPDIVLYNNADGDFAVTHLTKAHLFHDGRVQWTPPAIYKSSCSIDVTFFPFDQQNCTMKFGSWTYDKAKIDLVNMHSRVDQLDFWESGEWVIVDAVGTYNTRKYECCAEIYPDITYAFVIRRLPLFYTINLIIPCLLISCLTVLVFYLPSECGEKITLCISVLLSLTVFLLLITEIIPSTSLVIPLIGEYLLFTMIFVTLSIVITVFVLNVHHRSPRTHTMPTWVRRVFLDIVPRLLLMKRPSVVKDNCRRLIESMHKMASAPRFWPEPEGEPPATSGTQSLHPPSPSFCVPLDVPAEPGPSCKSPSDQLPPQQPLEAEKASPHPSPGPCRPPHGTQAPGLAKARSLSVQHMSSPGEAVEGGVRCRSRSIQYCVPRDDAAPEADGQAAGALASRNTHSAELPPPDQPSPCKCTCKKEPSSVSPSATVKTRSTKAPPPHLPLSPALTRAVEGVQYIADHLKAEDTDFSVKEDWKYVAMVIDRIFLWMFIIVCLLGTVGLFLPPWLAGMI
T2 sequence (P17787 26-502): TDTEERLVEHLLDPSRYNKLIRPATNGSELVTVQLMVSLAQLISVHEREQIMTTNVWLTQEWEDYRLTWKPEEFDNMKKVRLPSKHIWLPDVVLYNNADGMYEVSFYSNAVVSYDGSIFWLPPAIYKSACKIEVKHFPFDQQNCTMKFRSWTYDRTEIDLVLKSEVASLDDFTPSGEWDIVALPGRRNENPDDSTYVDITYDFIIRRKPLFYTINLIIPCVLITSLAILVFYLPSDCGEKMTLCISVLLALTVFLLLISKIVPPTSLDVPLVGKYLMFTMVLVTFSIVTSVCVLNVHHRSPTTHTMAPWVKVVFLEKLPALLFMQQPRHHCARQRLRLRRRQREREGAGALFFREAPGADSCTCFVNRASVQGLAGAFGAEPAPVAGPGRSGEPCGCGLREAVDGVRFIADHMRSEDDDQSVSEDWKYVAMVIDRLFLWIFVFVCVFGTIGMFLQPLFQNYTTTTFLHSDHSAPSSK
T1 sequence (P36544 23-502): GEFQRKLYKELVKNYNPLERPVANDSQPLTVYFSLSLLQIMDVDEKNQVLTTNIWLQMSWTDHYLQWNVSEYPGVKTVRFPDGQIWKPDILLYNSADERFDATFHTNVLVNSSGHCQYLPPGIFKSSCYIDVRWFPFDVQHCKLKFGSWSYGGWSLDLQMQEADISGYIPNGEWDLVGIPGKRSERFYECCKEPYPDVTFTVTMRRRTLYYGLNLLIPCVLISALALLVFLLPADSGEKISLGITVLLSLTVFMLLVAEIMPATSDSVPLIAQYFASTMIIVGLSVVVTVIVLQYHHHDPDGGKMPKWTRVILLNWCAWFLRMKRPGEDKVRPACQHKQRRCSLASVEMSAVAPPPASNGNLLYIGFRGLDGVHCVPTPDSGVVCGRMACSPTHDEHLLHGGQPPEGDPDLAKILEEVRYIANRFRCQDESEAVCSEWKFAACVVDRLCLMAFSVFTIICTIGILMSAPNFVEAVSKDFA

Compound: CO[C@H]1CC=C2CCN3CCC4=C(CC(=O)OC4)[C@]23C1 [dihydro-beta-erythroidine]
- effect against psychostimulant-induced stereotypy in naive animals (mice; systemic administration): ineffective

Compound: CN[C@]1(C)[C@H]2CC[C@H](C2)C1(C)C [exo-R-mecamylamine]
- potency of inhibition, comparing the IC50 values across receptors (human α7 receptors): least potent
- residual inhibition, compared across receptors (human α7 receptors): least
- stimulant effects (male Swiss-Webster mice [1]; 10 mg/kg ip, last 30 minutes of testing): evident
- dose producing one half of the maximal depressant activity (male Swiss-Webster mice [1]; ip, 20 min before testing, maximal depression is 0 counts in 30 minutes): 9.3 mg/kg
- affinity compared to cocaine [2]: lower than the affinity of cocaine
- voltage dependence of inhibition / off rate (human α4β2 receptors; 5 μM, −40 mV or 90 mV): significant voltage effects
- residual inhibition, compared across receptors (human α4β2 receptors; β2-containing receptors): greatest
- affinity compared to cocaine [3]: lower than the affinity of cocaine
- residual inhibition, compared across receptors (human α3β2 receptors): greatest
- locomotion versus cocaine alone (male Swiss-Webster mice [4]): significantly lower
- subsequent control response to ACh 5 min after exposure (residual inhibition) (human α3β4 receptors): marked decrease
- fast phase of recovery, average duration (human α3β4 receptors; no further recovery afterwards): 12 min
- increases in heart rate (δ HR) [5]: significantly lowered the increases in heart rate
- stimulation-induced increases in MAP [5]: completely abolished
- duration and severity of seizure versus saline (FIG. 6C) (Male Sprague-Dawley rats [6]; 0.1 mg/kg s.c.): did not differ from their saline comparison group
- stimulation-induced increases in plasma NE levels versus saline ([7]; 2.2 Hz): significantly less
- change of plasma DA levels on sympathetic stimulation ([7]; 2.2 Hz): significant increases in plasma DA levels
- effect on muscle receptors [8]: very little effect
- inhibition of muscle receptors after a 5-min wash [8]: fully reversed
- affinity compared to cocaine [9]: lower than the affinity of cocaine
- effectiveness compared between isomers, particularly center distance and vertical activity [10]: generally more effective at lower doses

Compound: C[N+](C)(C)CCCCCC[N+](C)(C)C [hexamethonium]
- block of nicotine-induced locomotor hyperactivity and tail tremor (rats): not

Compound: CN[C@@]1(C)[C@@H]2CC[C@@H](C2)C1(C)C [exo-S-mecamylamine]
- initial inhibition (nicotine receptors; co-application of 10 μM and ACh at the control concentration): greater than 50%
- off-loading from some receptors compared to exo-R-mecamylamine (nicotine receptors; recovery time course): more slowly
- locomotor depressant effects compared to exo-R-mecamylamine (Male Sprague-Dawley rats [11]): significantly less locomotor depressant effects
- inhibition of response to 10 μM glutamate+10 μM glycine [12]: transient inhibition
- reversibility after a 5-min wash [12]: reversible
- increases in heart rate (δ HR) [5]: significantly lowered the increases in heart rate
- stimulation-induced increases in MAP [5]: completely abolished
- inhibitory effect at nAChR muscle receptors compared to exo-R-mecamylamine [13]: less inhibitory effect
- duration and severity of seizure versus saline (FIG. 6C) (Male Sprague-Dawley rats [6]; 0.1 mg/kg s.c.): significantly different from their saline comparison groups
- seizure latency versus saline comparison groups (Male Sprague-Dawley rats [6]; 0.1 mg/kg s.c.): significantly longer seizure latency
- number of rats with nicotine-seizures compared to exo-R-mecamylamine (Male Sprague-Dawley rats [6]; lowest dose 0.1 mg/kg): fewer rats had nicotine-seizures
- stimulation-induced increases in plasma NE levels versus saline ([7]; 2.2 Hz): significantly decreased stimulation-evoked plasma NE increases
- stimulation-induced plasma EPI responses ([7]; 2.2 Hz): significant decrease
- change of plasma DA levels on sympathetic stimulation ([7]; 2.2 Hz): not
- overall effectiveness on plasma CA and sympathetically-mediated cardiovascular responses ([7]; among the three forms): the most effective in reducing plasma CA

Compound: O=C(CCCN1CCC(O)(c2ccc(Cl)cc2)CC1)c1ccc(F)cc1 [haloperidol]
- cases in which effective (TS patients): about 70%

Compound: CN1[C@@H]2CC[C@H]1C[C@@H](OC(=O)C(CO)c1ccccc1)C2 (some centres unmarked) [atropine]
- effect against psychostimulant-induced stereotypy in naive animals (mice; mouse, in vivo): ineffective

Compound: Clc1cccc(Cl)c1N=C1NCCN1 [clonidine]
- success rate for motor and vocal tics (TS patients): 40%
